Experiment [1] deals with erythrocytic stages of P. falciparum NF54. Put plainly: Plasmodium falciparum in vitro assay, [3H] hypoxanthine incorporation. Format: cell-based. As to conditions: Plasmodium falciparum, Erythrocyte, 72 h, P. falciparum NF54 in human red blood cells, 48 h + 24 h incubation. The method, then: In Vitro Antimalarial Activity: Plasmodium falciparum In Vitro Assay In vitro activity against erythrocytic stages of P. falciparum in human red blood cells is determined using a [^3H] hypoxanthine incorporation assay. […] Thereafter, the parasite cultures incubated in screening medium containing washed human red blood cells at 2.5% hematocrit (0.3% parasitemia) are added to the serially diluted compounds and incubated in a humidifying atmosphere at 37° C., 4% CO2, 3% O2, and 93% N2. After 48 h, [^3H] hypoxanthine (0.5 μCi) is added to each well of a plate. The plates are incubated for a further 24 h under the same conditions then harvested with a Betaplate cell harvester (Wallac) and washed with distilled water. The dried filters are inserted into a plastic foil with 10 mL of scintillation fluid, and counted in a Betaplate liquid scintillation counter. IC50 values are calculated from sigmoidal inhibition curves using Microsoft Excel.

Experiment [2] concerns P. berghei strain GFP-ANKA. Put plainly: In vivo antimalarial efficacy study in infected NMRI mice. As to conditions: Plasmodium berghei; female NMRI mice infected with P. berghei GFP-ANKA; single oral dose of 100 mg/kg 24 h after infection; parasitemia 48 h after drug treatment (day 3); read-out: Activity (inhibition of parasitemia) expressed as a percent relative to the control group. The method, then: In Vivo Antimalarial Efficacy Studies
In vivo antimalarial activity is assessed for groups of three female NMRI mice (20-22 g) intravenously infected on day 0 with P. berghei strain GFP-ANKA (0.2 mL heparinized saline suspension containing 2×10^7 parasitized erythrocytes). In control mice, parasitemia typically rises to approximately 40% by day 3 after infection. Compounds are formulated in Tween 80/ethanol (7%/3%) usually at concentrations of 10 mg/mL. Compounds are administered in a volume of 10 mL/kg orally as single doses (1×100 mg/kg, 24 h after infection). 48 h after drug treatment (day 3 post-infection), 1 μl tail blood is taken, resuspended in 1 mL PBS buffer and parasitemia determined with a FACScan (Becton Dickinson) by counting 100′000 red blood cells. Activity is calculated as the difference between the mean value of the control group and treated groups expressed as a percent relative to the control group.

Where [3] appears, read: screening medium with Albumax (5 g/L), read-out: IC50 on NF54 (with Albumax).
[4] abbreviates: screening medium with human serum (50% final concentration), read-out: IC50 on NF54 (with 50% Serum).

The structures appear in SMILES notation. Like-named read-outs stand apart in the source and are kept apart here.

On to `CC(=O)N1CCN(c2ccc(CN(C(=O)C=Cc3ccc(C(F)(F)F)cc3)[C@@H](Cc3ccccc3)C(=O)N3CCN(Cc4ccccc4)CC3)cc2)CC1` [Example 1, (S)-N-[4-(4-Acetyl-piperazin-1-yl)-benzyl]-N-[1-benzyl-2-(4-benzyl-piperazin-1-yl)-2-oxo-ethyl]-3-(4-trifluoromethyl-phenyl)-acrylamide, reference compound], for which the half-inhibitory concentration (IC50) (usually the concentration at which inhibition is half-maximal) in experiment [1] (setting [3]) came to 5.1 nM; in experiment [1] (setting [4]), 27.6 nM. In addition, in experiment [2], the inhibition in vivo at 100 mg/kg is below 40%.

As to `CCc1ccc(C=CC(=O)N(Cc2ccc(N3CCN(C(C)=O)CC3)cc2)[C@@H](Cc2ccccc2)C(=O)N2CCN(Cc3ccccc3)CC2)cc1` [Example 2, (S)-N-[4-(4-Acetyl-piperazin-1-yl)-benzyl]-N-[1-benzyl-2-(4-benzyl-piperazin-1-yl)-2-oxo-ethyl]-3-(4-ethyl-phenyl)-acrylamide], the half-inhibitory concentration (IC50) in experiment [1] (setting [3]) amounted to 2 nM; in experiment [1] (setting [4]) it was 10 nM. For the same compound, the inhibition in vivo at 100 mg/kg in experiment [2] stood at 94.1%.

Consider `CC(=O)N1CCN(c2ccc(CN(C(=O)C=Cc3ccc(C(C)(C)C)cc3)[C@@H](Cc3ccccc3)C(=O)N3CCN(Cc4ccccc4)CC3)cc2)CC1` [Example 3, (S)-N-[4-(4-Acetyl-piperazin-1-yl)-benzyl]-N-[1-benzyl-2-(4-benzyl-piperazin-1-yl)-2-oxo-ethyl]-3-(4-tert-butyl-phenyl)-acrylamide], for which the concentration for half-maximal inhibition (IC50) in experiment [1] (setting [3]) stood at 1.9 nM; in experiment [1] (setting [4]) it was 8.5 nM. In experiment [2], the inhibition in vivo at 100 mg/kg came to 98.7%.

`CCOc1ccc(C=CC(=O)N(Cc2ccc(N3CCN(C(C)=O)CC3)cc2)[C@@H](Cc2ccccc2)C(=O)N2CCN(Cc3ccccc3)CC2)cc1` [Example 4, (S)-N-[4-(4-Acetyl-piperazin-1-yl)-benzyl]-N-[1-benzyl-2-(4-benzyl-piperazin-1-yl)-2-oxo-ethyl]-3-(4-ethoxy-phenyl)-acrylamide]: the half-maximal inhibitory concentration (IC50) turned out to be 1.9 nM in experiment [1] (setting [3]) and 10 nM in experiment [1] (setting [4]). The inhibition in vivo at 100 mg/kg in experiment [2] was 97.4%.

As to `COC(=O)c1ccc(C=CC(=O)N(Cc2ccc(N3CCN(C(C)=O)CC3)cc2)[C@@H](Cc2ccccc2)C(=O)N2CCN(Cc3ccccc3)CC2)cc1` [Example 5, (S)-4-(2-{[4-(4-Acetyl-piperazin-1-yl)-benzyl]-[1-benzyl-2-(4-benzyl-piperazin-1-yl)-2-oxo-ethyl]-carbamoyl}-vinyl)-benzoic acid methyl ester], the IC50 is 3.9 nM in experiment [1] (setting [3]) and 12 nM in experiment [1] (setting [4]). The inhibition in vivo at 100 mg/kg in experiment [2] was below 40%.

For `CC(=O)N1CCN(c2ccc(CN(C(=O)C=Cc3ccc(S(C)(=O)=O)cc3)[C@@H](Cc3ccccc3)C(=O)N3CCN(Cc4ccccc4)CC3)cc2)CC1` [Example 6, (S)-N-[4-(4-Acetyl-piperazin-1-yl)-benzyl]-N-[1-benzyl-2-(4-benzyl-piperazin-1-yl)-2-oxo-ethyl]-3-(4-methanesulfonyl-phenyl)-acrylamide], the concentration for half-maximal inhibition (IC50) stood at 9.4 nM in experiment [1] (setting [3]) and 32 nM in experiment [1] (setting [4]). Further, the inhibition in vivo at 100 mg/kg in experiment [2] stood at 80.4%.

Consider `CC(=O)Nc1ccc(C=CC(=O)N(Cc2ccc(N3CCN(C(C)=O)CC3)cc2)[C@@H](Cc2ccccc2)C(=O)N2CCN(Cc3ccccc3)CC2)cc1` [Example 7, (S)-3-(4-Acetylamino-phenyl)-N-[4-(4-acetyl-piperazin-1-yl)benzyl]-N-[1-benzyl-2-(4-benzyl-piperazin-1-yl)-2-oxo-ethyl]-acrylamide], for which the IC50 in experiment [1] (setting [3]) worked out at 3.1 nM; in experiment [1] (setting [4]), 40 nM. Also, the inhibition in vivo at 100 mg/kg in experiment [2] stood at 44.7%.

`CCCOc1ccc(C=CC(=O)N(Cc2ccc(N3CCN(C(C)=O)CC3)cc2)[C@@H](Cc2ccccc2)C(=O)N2CCN(Cc3ccccc3)CC2)cc1` [Example 8, (S)-N-[4-(4-Acetyl-piperazin-1-yl)-benzyl]-N-[1-benzyl-2-(4-benzyl-piperazin-1-yl)-2-oxo-ethyl]-3-(4-propoxy-phenyl)-acrylamide]: the IC50 in experiment [1] (setting [3]) was determined as 1.8 nM; in experiment [1] (setting [4]), 13.4 nM. In experiment [2], the inhibition in vivo at 100 mg/kg was determined as 99.4%.

As to `CC(=O)N1CCN(c2ccc(CN(C(=O)C=Cc3ccc(OC(C)C)cc3)[C@@H](Cc3ccccc3)C(=O)N3CCN(Cc4ccccc4)CC3)cc2)CC1` [Example 9, (S)-N-[4-(4-Acetyl-piperazin-1-yl)-benzyl]-N-[1-benzyl-2-(4-benzyl-piperazin-1-yl)-2-oxo-ethyl]-3-(4-isopropoxy-phenyl)-acrylamide], the results for the IC50 in experiment [1] (setting [3]) and in experiment [1] (setting [4]) were 2.4 nM and 7.3 nM, respectively. In experiment [2], the inhibition in vivo at 100 mg/kg is 99.1%.

Take `CC(=O)N1CCN(c2ccc(CN(C(=O)C=Cc3ccc(C(C)C)cc3)[C@@H](Cc3ccccc3)C(=O)N3CCN(Cc4ccccc4)CC3)cc2)CC1` [Example 10, (S)-N-[4-(4-Acetyl-piperazin-1-yl)-benzyl]-N-[1-benzyl-2-(4-benzyl-piperazin-1-yl)-2-oxo-ethyl]-3-(4-isopropyl-phenyl)-acrylamide]: the concentration for half-maximal inhibition (IC50) worked out at 3 nM in experiment [1] (setting [3]) and 8.6 nM in experiment [1] (setting [4]). In addition, in experiment [2], the inhibition in vivo at 100 mg/kg turned out to be 96%.

With `CCOc1ccc(C=CC(=O)N(Cc2ccc(N3CCN(C(C)=O)CC3)cc2)[C@@H](Cc2ccccc2)C(=O)N2CCN(Cc3ccc(N(C)C)cc3)CC2)cc1` [Example 15, (S)-N-[4-(4-Acetyl-piperazin-1-yl)-benzyl]-N-{1-benzyl-2-[4-(4-dimethylamino-benzyl)-piperazin-1-yl]-2-oxo-ethyl}-3-(4-ethoxy-phenyl)-acrylamide], the half-maximal inhibitory concentration (IC50) in experiment [1] (setting [3]) stood at 1.7 nM; in experiment [1] (setting [4]) it was 6.8 nM. In experiment [2], the inhibition in vivo at 100 mg/kg was 99%.

For `CC(=O)N1CCN(c2ccc(CN(C(=O)C=Cc3ccc(S(C)(=O)=O)cc3)[C@@H](Cc3ccccc3)C(=O)N3CCN(Cc4ccc(N(C)C)cc4)CC3)cc2)CC1` [Example 16, (S)-N-[4-(4-Acetyl-piperazin-1-yl)-benzyl]-N-{1-benzyl-2-[4-(4-dimethylamino-benzyl)-piperazin-1-yl]-2-oxo-ethyl}-3-(4-methanesulfonyl-phenyl)-acrylamide], the 50% inhibitory concentration (IC50) in experiment [1] (setting [3]) was found to be 5.5 nM; in experiment [1] (setting [4]), 13.3 nM. For the same compound, the inhibition in vivo at 100 mg/kg in experiment [2] is 85.9%.

Regarding `CCCOc1ccc(C=CC(=O)N(Cc2ccc(N3CCN(C(C)=O)CC3)cc2)[C@@H](Cc2ccccc2)C(=O)N2CCN(Cc3ccc(N(C)C)cc3)CC2)cc1` [Example 18, (S)-N-[4-(4-Acetyl-piperazin-1-yl)-benzyl]-N-{1-benzyl-2-[4-(4-dimethylamino-benzyl)-piperazin-1-yl]-2-oxo-ethyl}-3-(4-propoxy-phenyl)-acrylamide], the half-maximal inhibitory concentration (IC50) came out at 2.5 nM in experiment [1] (setting [3]) and 11.8 nM in experiment [1] (setting [4]). For the same compound, the inhibition in vivo at 100 mg/kg in experiment [2] came to 99.1%.

Turning to `CC(=O)c1ccc(C=CC(=O)N(Cc2ccc(N3CCN(C(C)=O)CC3)cc2)[C@@H](Cc2ccccc2)C(=O)N2CCN(Cc3ccc(N(C)C)cc3)CC2)cc1` [Example 70, (S)-3-(4-Acetyl-phenyl)-N-[4-(4-acetyl-piperazin-1-yl)benzyl]-N-{1-(4-(4-(dimethylamino)benzyl)piperazin-1-yl)-1-oxo-3-phenylpropan-2-yl}acrylamide], the IC50 was below 3.1 nM in experiment [1] (setting [3]) and 16 nM in experiment [1] (setting [4]).

Regarding `CC(=O)N1CCN(c2ccc(CN(C(=O)C=Cc3ccc(C#N)cc3)[C@@H](Cc3ccccc3)C(=O)N3CCN(Cc4ccc(N(C)C)cc4)CC3)cc2)CC1` [Example 71, (S)-N-[4-(4-Acetyl-piperazin-1-yl)benzyl]-3-(4-cyanophenyl)-N-{1-(4-(4-(dimethylamino)benzyl)piperazin-1-yl)-1-oxo-3-phenylpropan-2-yl}acrylamide], the results for the IC50 in experiment [1] (setting [3]) and in experiment [1] (setting [4]) were 18 nM and 62 nM, respectively.

For `CC(=O)N1CCN(c2ccc(CN(C(=O)C=Cc3ccc(F)cc3)[C@@H](Cc3ccccc3)C(=O)N3CCN(Cc4ccc(N(C)C)cc4)CC3)cc2)CC1` [Example 72, (S)-N-[4-(4-Acetyl-piperazin-1-yl)benzyl]-N-{1-(4-(4-(dimethylamino)benzyl)piperazin-1-yl)-1-oxo-3-phenylpropan-2-yl}-3-(4-fluorophenyl)acrylamide], the figures for the 50% inhibitory concentration (IC50) in experiment [1] (setting [3]) and in experiment [1] (setting [4]) were 10 nM and 91 nM, respectively.

In the case of `CC(=O)N1CCN(c2ccc(CN(C(=O)C=Cc3ccc(Cl)cc3)[C@@H](Cc3ccccc3)C(=O)N3CCN(Cc4ccc(N(C)C)cc4)CC3)cc2)CC1` [Example 73, (S)-N-[4-(4-Acetyl-piperazin-1-yl)benzyl]-3-(4-chlorophenyl)-N-{1-(4-(4-(dimethylamino)benzyl)piperazin-1-yl)-1-oxo-3-phenylpropan-2-yl}acrylamide], the values for the IC50 in experiment [1] (setting [3]) and in experiment [1] (setting [4]) were 3.3 nM and 26 nM, respectively.
